Experimental findings from patent publication US9574176B2 (priority 2012, dated 2017) are described below.

For test [1], the system named is WT mouse-derived neural stem cells. It counts as cell-based.
Test [2] relates to human neural progenitor cells (NHNP). It counts as cell-based.

Turning to ω-conotoxin GVIA, the “differentiation after passaging with inhibitor” value in test [1] was “differentiation into Tuj-1 (class III β-tubulin)-positive nerve cells and GFAP (grail fibrillary acidic protein)-positive astrocytes could be confirmed”; in test [2], “many cells differentiate into Tuj-1 (class III β-tubulin)-positive nerve cells and some cells differentiate into GFAP (grail fibrillary acidic protein)-positive astrocytes”.
